Results on six molecules are retold here after paper PMC4114559, “Pigment Dispersing Factor Regulates Ecdysone Biosynthesis via Bombyx Neuropeptide G Protein Coupled Receptor-B2 in the Prothoracic Glands of Bombyx mori” (PLoS ONE, 2014).

For test [1], the system named is PGs. The conditions noted are these: cited from earlier work. From the text: In many cases, a single hormone has multiple functions regulating many physiological phenomena. Thus, both the regulation of receptor expression in the target tissue and the regulation of hormone release are important for the hormone to only affect the target tissue at the appropriate time. In the case of PTTH, the titer of the hormone in the hemolymph is clearly correlated with the ecdysteroid titer ... || In insects, neuropeptide hormones affect the target tissue via humoral and neuronal pathways. […] The increase in intracellular cAMP is thought to be regulated by Ca^2+ signaling in the PTTH signaling pathway, [37]. […] PDF sig ... || (+ 1 further places)

Test [2] has as its system PGs of B. mori. Put plainly: Effect of inhibitors on induced ecdysone biosynthesis in cultured PGs. It counts as cell-based, Bombyx mori. Conditions: 15 min pre-treatment, 3 hours; for effect of inhibitor on PDF-induced ecdysone biosynthesis: n = 10. The method, then: (§1) Dissected PGs were rinsed with Grace's insect culture medium (Gibco) and pre-cultured individually in 100 µl medium in 96-well plates (BD Falcon) at 25°C for 30 min. To evaluate the effect of extracellular Ca^2+ on ecdysone biosynthesis, lepidopteran saline and lepidopteran saline using NaCl as a replacement for CaCl2 were used. For the pharmacological analysis, the PG was pre-treated with the inhibitor for 15 min during the pre-culture period. Following this treatment, the PG was cultured in the desired conditions for the desired period (Ecdysone assay: 3 hours; cAMP assay: 30 min; and Protein phosphorylation assay: 15 min). Actinomycin D, H-89 and cycloheximide (CHX) were purchased from Sigma; Rapamycin was purchased from Santa Cruz Biotechnology; and LY294002 was purchased from Merck. H-89 was dissolved in water. The other inhibitors were dissolved in DMSO. A 1% volume of the appropriate inhibitor was added to the culture medium.
Prior to ecdysteroids extraction, the 100 µl of cultured medium was diluted with equal volume of MilliQ water. After that, 400 µl of 1-butanol was added to the sample, vortexed for 3 min and centrifuged at 1,000×g for 10 min at 4°C. The 1-butanol phase was transferred to a new tube, and the solvent was evaporated using a centrifugal concentrator. The dried samples were re-dissolved in 50 µl of pure methanol for the following analysis. Quantification of ecdysteroids using LC-MS/MS was performed as previously described with some modifications. Ecdysteroids were separated by reverse-phase HPLC using a PEGASIL C8 column (3 µm, 2×100 mm, Senshu-pak, Senshu-kagaku) with gradient elution of acetonitrile (ACN)/water at a flow rate of 0.2 mL min^−1 (0–3 min (ACN = 10–75%), 3–20 min (75–85%), 20–25 min (100%)), on a Prominence UFLC system (Shimadzu). The separated ecdysteroids were quantified with the QTRAP5500 MS/MS system (AB SCIEX) using MRM mode. For the quantitative analysis, standard curves were generated with concentrations of 0.98–1000 ng/ml.
Because PDF stimulated the increase in intracellular cAMP levels in the PGs, the activation of PKA is likely involved in the PDF signaling pathway. One of the pathways downstream of active PKA is cAMP response element-binding protein (CREB)-mediated transcriptional regulation. First, we evaluated the effect of PDF on the transcript level of known ecdysone biosynthetic enzymes (Nvd, Nm-g, Spo, Phm, Dib and Sad) using Q-PCR. […] Therefore, de novo transcription was not required for PDF-mediated ecdysone biosynthesis for at least 3 hours. […]
(§2) Figure 4 Signaling pathways involved in PDF-induced ecdysone biosynthesis. […] The transcript levels of nvd, nm-g, spo, phm, dib and sad were quantified with Q-PCR. […] Statistically significant differences were evaluated by Student's t-test (***P<0.001, **P<0.01). […]

The subject of test [3] is 4E-BP. Put plainly: p-4E-BP level in cultured PGs (Western blot). It counts as cell-based, Bombyx mori. The conditions noted are these: PI3K inhibitor LY294002 50 µM; immunoblotting. As for the experimental part: as §1, with “Actinomycin D, H-89 and cycloheximide (CHX) were purchased from Sigma; Rapamycin was purchased from Santa Cruz Biotechnology; and LY294002 was purchased from Merck. H-89 was dissolved in water. The other inhibitors were dissolved in DMSO. A 1% volume of the appropriate inhibitor was added to the culture medium.” left out
Dissected PGs were pre-cultured in Grace's culture medium for 30 min, then cultured with or without PDF or PTTH for 15 min. The cultured PGs were sonicated in 50 mM Tris-HCl (pH 6.8) with protease inhibitor cocktail (Complete, Roche) and phosphatase inhibitor cocktail (Wako), lysed in 1x SDS sample buffer excluding 2-mercaptoethanol (2ME) and bromophenol blue (BPB), and the protein concentration was measured using the BCA protein assay kit (Pierce). […]
as §2

Entries after “also recorded” stand apart in the source; their conditions may differ. Numbered stars: 1 amine (or outer) side, 2 acyl side, 3 side chain; on linkers, the order of the positions; unused ones are H or OH. Bridge positions count the residues as written; N and C are the ends. Square brackets hold non-standard residues; d marks the D form. Ends that are not written are not given here. Peptide text beside a SMILES is read from it. I, II: the chains in the order shown. Actinocin(9to1) = Cc1c2oc3c(C)ccc(C(=O)[*:1])c3nc-2c(C(=O)[*:2])c(N)c1=O; NMeV = CN[C@H](C(=O)O)C(C)C; Sar = CNCC(=O)O

Turning to `CCCC(=O)Nc1ncnc2c1ncn2[C@@H]1O[C@@H]2COP(=O)(O)O[C@H]2[C@H]1OC(=O)CCC` [dbcAMP, dibutyryl cyclic AMP, reference compound], the “ecdysone biosynthesis in vitro (literature)” value in test [1] (cell-permeable cAMP analog, in vitro, ref [27], [37]) was “can induce ecdysone biosynthesis in vitro”. Besides, in test [1] (ref [39]), the “effect of a transcription inhibitor on PTTH- and dbcAMP-induced ecdysone biosynthesis (literature)” value is “ecdysone biosynthesis was suppressed by a transcription inhibitor”.
For `O=S(=O)(NCCNC/C=C/c1ccc(Br)cc1)c1cccc2cnccc12` [H-89], the “effect of inhibitor on PDF-induced ecdysone biosynthesis” value in test [2] (PKA inhibitor H-89 0.1 mM) is reported as “clearly inhibited ecdysone biosynthesis; also recorded: inhibited PDF-induced ecdysone biosynthesis”.
For `Cc1c2oc3c(C)ccc(C(=O)N[C@@H]4C(=O)N[C@H](C(C)C)C(=O)N5CCC[C@H]5C(=O)N(C)CC(=O)N(C)[C@@H](C(C)C)C(=O)O[C@@H]4C)c3nc-2c(C(=O)N[C@@H]2C(=O)N[C@H](C(C)C)C(=O)N3CCC[C@H]3C(=O)N(C)CC(=O)N(C)[C@@H](C(C)C)C(=O)O[C@@H]2C)c(N)c1=O` [actinomycin D] (I: T[dV]P[Sar][NMeV] / II: T[dV]P[Sar][NMeV]; ester I:1-I:C, II:1-II:C; linker I:N-II:N via Actinocin(9to1)), the “effect of inhibitor on PDF-induced ecdysone biosynthesis” value in test [2] (transcription inhibitor ActD 10 µM) is “did not suppress PDF-induced ecdysone biosynthesis”.
With `C[C@@H]1C[C@@H]([C@H](O)CC2CC(=O)NC(=O)C2)C(=O)[C@@H](C)C1` [CHX, cycloheximide], the “effect of inhibitor on PDF-induced ecdysone biosynthesis” value in test [2] (translation inhibitor CHX 0.2 mM) was “clearly inhibited ecdysone biosynthesis”.
With `O=c1cc(N2CCOCC2)oc2c(-c3ccccc3)cccc12` [LY294002, reference compound], the “effect of inhibitor on phosphorylation of 4E-BP induced by PDF and PTTH” value in test [3] is “clearly suppressed the ecdysone biosynthesis and phosphorylation of 4E-BP induced by PDF and PTTH”. In test [2] (PI3K inhibitor LY294002 50 µM, n = 3 and 4), the “effect of inhibitor on ecdysone biosynthesis induced by PDF and PTTH” value is “clearly suppressed the ecdysone biosynthesis”.
By EC50 is commonly meant the midpoint of the concentration-response curve. Take “diapause hormone: neuronal pathway-mediated tropic hormone (TDMKDESDRGAHSERGALWFGPRL; ends and bridges not checked; UniProt P09971 24-47, looked up) [reference compound]”: the EC50 in test [1] (neuronal pathway-mediated tropic hormone, ref [32], read-out: EC50 of tropic hormone (literature)) was 0.27 µM.
